Test results as given in patent US12398140B2, “Substituted pyrrolo [2,3-d]pyrimidines for treating familial dysautonomia” (PTC THERAPEUTICS, INC., priority 2019, dated 2025).
Structures can show the parent of a compound that is named as a salt.

system: Elongator complex protein 1 (ELPI, also referred to as IKBKAP); test: IKBKAP-HTRF assay (IKBKAP protein in lysates of FD patient-derived fibroblasts); type: cell-based, human; details: FD patient-derived fibroblasts GM04589, 48 hours, 7-point concentration curve
Outline: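 FD patient-derived fibroblasts (10,000/well) treated 48 h at 37 °C with compound across a 7-point 3.16-fold series, in triplicate; lysates assayed by sandwich HTRF with two anti-IKAP antibodies, overnight at 4 °C, 665/620 nm read. MFI = ΔF over vehicle; EC2x = concentration doubling IKBKAP protein versus DMSO.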

Row | Structure (SMILES) | EC2x for IKBKAP protein expression (concentration producing two times the amount of IKBKAP protein vs DMSO vehicle control) | MFI (maximum fold increase in IKBKAP protein abundance relative to the vehicle control)
1 | [2H]C([2H])([2H])NCCc1cc2c(NCc3ccco3)nc(Cl)nc2[nH]1 [Cpd 9, 2-chloro-N-[(furan-2-yl)methyl]-6-{2-[(^2H3)methylamino]ethyl}-7H-pyrrolo[2,3-d]pyrimidin-4-amine hydrochloride] | *** (between >0.02 μM and ≤0.5 μM is indicated by three stars (***)) | **** (between >3.9 and ≤4.9 is indicated by four stars (****))
2 | C[C@H](N)Cc1cc2c(NCc3ccncc3F)nc(Cl)nc2[nH]1.Cl.Cl [Cpd 31, 6-[(2S)-2-aminopropyl]-2-chloro-N-[(3-fluoropyridin-4-yl)methyl]-7H-pyrrolo[2,3-d]pyrimidin-4-amine dihydrochloride] | **** (between >0.005 μM and ≤0.02 μM is indicated by four stars (****)) | ***** (>4.9 is indicated by five stars (*****))
3 | CNCCc1[nH]c2nc(Cl)nc(NCc3ccco3)c2c1Cl.Cl [Cpd 17, 2,5-dichloro-N-[(furan-2-yl)methyl]-6-[2-(methylamino)ethyl]-7H-pyrrolo[2,3-d]pyrimidin-4-amine hydrochloride] | *** (between >0.02 μM and ≤0.5 μM is indicated by three stars (***)) | **** (between >3.9 and ≤4.9 is indicated by four stars (****))
4 | C[C@H](N)Cc1c(F)c2c(NCc3cncs3)nc(Cl)nc2n1C.Cl.Cl [Cpd 48, 6-[(2S)-2-aminopropyl]-2-chloro-5-fluoro-7-methyl-N-[(1,3-thiazol-5-yl)methyl]-7H-pyrrolo[2,3-d]pyrimidin-4-amine dihydrochloride] | * (An EC2x>1 μM is indicated by one star (*)) | * (An MFI≤1.9 is indicated by one star (*))
5 | C[C@H](N)Cc1c(F)c2c(NCc3ccncc3F)nc(Cl)nc2n1C.Cl.Cl [Cpd 41, 6-[(2S)-2-aminopropyl]-2-chloro-5-fluoro-N-[(3-fluoropyridin-4-yl)methyl]-7-methyl-7H-pyrrolo[2,3-d]pyrimidin-4-amine dihydrochloride] | *** (between >0.02 μM and ≤0.5 μM is indicated by three stars (***)) | ***** (>4.9 is indicated by five stars (*****))
6 | C[C@H](N)Cc1cc2c(NCc3cscn3)nc(Cl)nc2[nH]1 [Cpd 61, 6-[(2S)-2-aminopropyl]-2-chloro-N-[(1,3-thiazol-4-yl)methyl]-7H-pyrrolo[2,3-d]pyrimidin-4-amine] | * (An EC2x>1 μM is indicated by one star (*)) | * (An MFI≤1.9 is indicated by one star (*))
7 | CC(C)(C)[C@H](N)Cc1cc2c(NCc3ccco3)nc(Cl)nc2[nH]1.Cl [Cpd 29, 6-[(2R)-2-amino-3,3-dimethylbutyl]-2-chloro-N-[(furan-2-yl)methyl]-7H-pyrrolo[2,3-d]pyrimidin-4-amine hydrochloride] | *** (between >0.02 μM and ≤0.5 μM is indicated by three stars (***)) | **** (between >3.9 and ≤4.9 is indicated by four stars (****))
8 | C[C@@H](N)Cc1c(F)c2c(NCc3ccco3)nc(Cl)nc2n1C.Cl [Cpd 60, 6-[(2R)-2-aminopropyl]-2-chloro-5-fluoro-N-[(furan-2-yl)methyl]-7-methyl-7H-pyrrolo[2,3-d]pyrimidin-4-amine hydrochloride] | * (An EC2x>1 μM is indicated by one star (*)) | * (An MFI≤1.9 is indicated by one star (*))
9 | Cl.NCCCc1cc2c(NCc3ccco3)nc(Cl)nc2[nH]1 [Cpd 1, 6-(3-aminopropyl)-2-chloro-N-[(furan-2-yl)methyl]-7H-pyrrolo[2,3-d]pyrimidin-4-amine hydrochloride] | *** (between >0.02 μM and ≤0.5 μM is indicated by three stars (***)) | **** (between >3.9 and ≤4.9 is indicated by four stars (****))
10 | COc1ccc(-n2c(C[C@H](C)N)c(F)c3c(NCc4ccco4)nc(Cl)nc32)cc1.Cl [Cpd 46, 6-[(2S)-2-aminopropyl]-2-chloro-5-fluoro-N-[(furan-2-yl)methyl]-7-(4-methoxyphenyl)-7H-pyrrolo[2,3-d]pyrimidin-4-amine hydrochloride] | * (An EC2x>1 μM is indicated by one star (*)) | * (An MFI≤1.9 is indicated by one star (*))
11 | CC[C@H](N)Cc1[nH]c2nc(Cl)nc(NCc3ccco3)c2c1F.Cl [Cpd 44, 6-[(2S)-2-aminobutyl]-2-chloro-5-fluoro-N-[(furan-2-yl)methyl]-7H-pyrrolo[2,3-d]pyrimidin-4-amine hydrochloride] | **** (between >0.005 μM and ≤0.02 μM is indicated by four stars (****)) | ***** (>4.9 is indicated by five stars (*****))
12 | C[C@H](N)Cc1[nH]c2nc(Cl)nc(NCc3nccs3)c2c1F.Cl [Cpd 36, 6-[(2S)-2-aminopropyl]-2-chloro-5-fluoro-N-[(1,3-thiazol-2-yl)methyl]-7H-pyrrolo[2,3-d]pyrimidin-4-amine hydrochloride] | **** (between >0.005 μM and ≤0.02 μM is indicated by four stars (****)) | ***** (>4.9 is indicated by five stars (*****))
13 | C[C@H](N)Cc1[nH]c2nc(Cl)nc(NCc3ccco3)c2c1F.Cl [Cpd 10, 6-[(2S)-2-aminopropyl]-2-chloro-5-fluoro-N-[(furan-2-yl)methyl]-7H-pyrrolo[2,3-d]pyrimidin-4-amine hydrochloride] | **** (between >0.005 μM and ≤0.02 μM is indicated by four stars (****)) | ***** (>4.9 is indicated by five stars (*****))
14 | CC[C@H](N)Cc1[nH]c2nc(Cl)nc(NCc3ccco3)c2c1Cl.Cl [Cpd 21, 6-[(2S)-2-aminobutyl]-2,5-dichloro-N-[(furan-2-yl)methyl]-7H-pyrrolo[2,3-d]pyrimidin-4-amine hydrochloride] | **** (between >0.005 μM and ≤0.02 μM is indicated by four stars (****)) | **** (between >3.9 and ≤4.9 is indicated by four stars (****))
15 | CNCCc1[nH]c2nc(Cl)nc(NCc3ccco3)c2c1Br [Cpd 18, 5-bromo-2-chloro-N-(furan-2-yl)methyl]-6-[2-(methylamino)ethyl]-7H-pyrrolo[2,3-d]pyrimidin-4-amine hydrochloride] | *** (between >0.02 μM and ≤0.5 μM is indicated by three stars (***)) | **** (between >3.9 and ≤4.9 is indicated by four stars (****))
16 | CC[C@H](C)[C@H](N)Cc1cc2c(NCc3ccco3)nc(Cl)nc2[nH]1.Cl [Cpd 32, 6-[(2R,3S)-2-amino-3-methylpentyl]-2-chloro-N-[(furan-2-yl)methyl]-7H-pyrrolo[2,3-d]pyrimidin-4-amine hydrochloride] | **** (between >0.005 μM and ≤0.02 μM is indicated by four stars (****)) | ***** (>4.9 is indicated by five stars (*****))
17 | C[C@H](N)Cc1c(F)c2c(NCc3ccncc3)nc(Cl)nc2n1C.Cl.Cl [Cpd 43, 6-[(2S)-2-aminopropyl]-2-chloro-5-fluoro-7-methyl-N-[(pyridin-4-yl)methyl]-7H-pyrrolo[2,3-d]pyrimidin-4-amine dihydrochloride] | *** (between >0.02 μM and ≤0.5 μM is indicated by three stars (***)) | ***** (>4.9 is indicated by five stars (*****))
18 | CC[C@H](N)Cc1cc2c(NCc3ccco3)nc(Cl)nc2[nH]1 [Cpd 26, 6-[(2S)-2-aminobutyl]-2-chloro-N-[(furan-2-yl)methyl]-7H-pyrrolo[2,3-d]pyrimidin-4-amine] | **** (between >0.005 μM and ≤0.02 μM is indicated by four stars (****)) | **** (between >3.9 and ≤4.9 is indicated by four stars (****))
19 | CC[C@H](N)Cc1c(F)c2c(NCc3ccco3)nc(Cl)nc2n1C.Cl [Cpd 45, 6-[(2S)-2-aminobutyl]-2-chloro-5-fluoro-N-[(furan-2-yl)methyl]-7-methyl-7H-pyrrolo[2,3-d]pyrimidin-4-amine hydrochloride] | *** (between >0.02 μM and ≤0.5 μM is indicated by three stars (***)) | ***** (>4.9 is indicated by five stars (*****))
